Reference: ChEMBL document CHEMBL3751695, “Cationic lipid-conjugated hydrocortisone as selective antitumor agent” (Eur J Med Chem, 2016)
Calls of active or inactive are those of the source. No cut-off for these calls is given here.

Tests used:
[1] = test system: RAW264.7; assay: Induction of apoptosis in mouse RAW264.7 cells assessed as necrotic cells at 20 uM after 24 hrs by annexin-V-FITC/propidium iodide staining based flow cytometry (reference value: 1.81%); type: cell-based; conditions: raw264.7, 24 h
[2] = Induction of apoptosis in mouse NIH/3T3 cells assessed as early apoptotic cells at 20 uM after 24 hrs by annexin-V-FITC/propidium iodide staining based flow cytometry (reference value: 0.43 %); type: cell-based; conditions: nih3t3, 24 h
[3] = Induction of apoptosis in mouse NIH/3T3 cells assessed as late apoptotic cells at 20 uM after 24 hrs by annexin-V-FITC/propidium iodide staining based flow cytometry (reference value: 0.28 %); type: cell-based; conditions: nih3t3, 24 h
[4] = Induction of apoptosis in mouse NIH/3T3 cells assessed as necrotic cells at 20 uM after 24 hrs by annexin-V-FITC/propidium iodide staining based flow cytometry (reference value: 0.24 %); type: cell-based; conditions: nih3t3, 24 h
[5] = test system: A549; assay: Cytotoxicity against human A549 cells at 5 and 10 uM after 72 hrs cells pretreated with 50 uM of RU486 for 4 hrs by MTT assay; type: functional, cell-based
[6] = test system: B16-F10; assay: Induction of apoptosis in mouse B16F10 cells assessed as increase in cleaved caspase 3 level at 20 uM after 36 hrs by western blot analysis; type: functional, cell-based
[7] = test system: B16-F10; assay: Induction of apoptosis in mouse B16F10 cells assessed as increase in p53 expression at 20 uM after 36 hrs by […]; type: functional, cell-based
[8] = Cell cycle arrest in mouse B16F10 cells assessed as accumulation at G1 phase at 20 uM after 24 hrs by propidium iodide staining based flow cytometry (reference value: 38.8 %); type: functional; conditions: B16-F10
[9] = Cell cycle arrest in mouse B16F10 cells assessed as accumulation at S phase at 20 uM after 24 hrs by propidium iodide staining based flow cytometry (reference value: 5.4 %); type: functional; conditions: B16-F10
[10] = Cell cycle arrest in mouse B16F10 cells assessed as accumulation at G2/M phase at 20 uM after 24 hrs by propidium iodide staining based flow cytometry (reference value: 15.2 %); type: functional; conditions: B16-F10
[11] = test system: Mus musculus; assay: Toxicity in C57BL/J mouse xenografted with mouse B16F10 cells assessed as animal survival at 10 mg/kg, ip measured upto 45 days post tumor inoculation; type: organism-based, B16-F10; conditions: in vivo, 1080 h
[12] = test system: B16-F10; assay: Antitumor activity in mouse B16F10 cells xenografted in C57BL/J mouse assessed as induction of apoptosis in tumor vasculature at 10 mg/kg, ip by TUNEL assay; type: functional, organism-based
[13] = test system: B16-F10; assay: Antitumor activity in mouse B16F10 cells xenografted in C57BL/J mouse assessed as increase of apoptotic protein Bax level in tumor lysates at 10 mg/kg, ip by western blot analysis; type: functional, organism-based; conditions: Neoplasm, Lysate
[14] = test system: B16-F10; assay: Antitumor activity in mouse B16F10 cells xenografted in C57BL/J mouse assessed as increase of apoptotic protein cytochrome C level in tumor lysates at 10 mg/kg, ip by western blot analysis; type: functional, organism-based; conditions: Neoplasm, Lysate
[15] = species on record: Gallus gallus; assay: Antiangiogenic activity in chicken embryo assessed as complete degradation of existing blood vessels at 80 uM after 4 hrs by microscopic analysis; type: functional, tissue-based; conditions: Blood vessel
[16] = test system: B16-F10; assay: Induction of apoptosis in mouse B16F10 cells assessed as increased Bax expression at 10 uM after 36 hrs by western blot analysis; type: functional, cell-based
[17] = test system: B16-F10; assay: Effect on Bcl-2 expression in mouse B16F10 cells at 10 and 20 uM after 36 hrs by western blot analysis; type: functional, cell-based
[18] = test system: B16-F10; assay: Induction of apoptosis in mouse B16F10 cells assessed as increase in ratio of Bax/Bcl2 level at 10 uM after 36 hrs by western blot analysis (reference value: 0.2); type: functional
[19] = test system: B16-F10; assay: Antitumor activity in mouse B16F10 cells xenografted in C57BL/J mouse assessed as increase of apoptotic protein cleaved caspase 7 level in tumor lysates at 10 mg/kg, ip by western blot analysis; type: functional, organism-based; conditions: Neoplasm, Lysate
[20] = test system: B16-F10; assay: Antitumor activity in mouse B16F10 cells xenografted in C57BL/J mouse assessed as increase of apoptotic protein p53 level in tumor lysates at 10 mg/kg, ip by western blot analysis; type: functional, organism-based; conditions: Neoplasm, Lysate
[21] = Antitumor activity in mouse B16F10 cells xenografted in C57BL/J mouse assessed as increase in ratio of Bax/Bcl2 in tumor lysates at 10 mg/kg, ip by western blot analysis (reference value: 0.4); type: functional, Neoplasm, B16-F10
[22] = Cytotoxicity against mouse B16F10 cells after 72 hrs by MTT assay; type: functional, cell-based; conditions: B16-F10, 72 h
[23] = test system: A549; assay: Cytotoxicity against human A549 cells after 72 hrs by MTT assay; type: functional, cell-based; conditions: A549, 72 h
[24] = test system: MCF7; assay: Cytotoxicity against human MCF7 cells after 72 hrs by MTT assay; type: functional, cell-based; conditions: MCF7, 72 h
[25] = Cytotoxicity against human SKOV3 cells after 72 hrs by MTT assay; type: functional, cell-based; conditions: SK-OV-3, 72 h
[26] = test system: HeLa; assay: Cytotoxicity against human HeLa cells after 72 hrs by MTT assay; type: functional, cell-based
[27] = Cytotoxicity against mouse B16F10 cells at 10 and 20 uM after 72 hrs by MTT assay; type: functional, B16-F10
[28] = test system: A549; assay: Induction of apoptosis in human A549 cells assessed as viable cells at 20 uM after 24 hrs by annexin-V-FITC/propidium iodide staining based flow cytometry (reference value: 87.96 %); type: functional; conditions: A549, 24 h, read-out: Activity
[29] = test system: A549; assay: Induction of apoptosis in human A549 cells assessed as late apoptotic cells at 20 uM after 24 hrs by annexin-V-FITC/propidium iodide staining based flow cytometry (reference value: 7.40 %); type: functional
[30] = test system: B16-F10; assay: Induction of apoptosis in mouse B16F10 cells assessed as viable cells at 20 uM after 24 hrs by annexin-V-FITC/propidium iodide staining based flow cytometry (reference value: 93.66 %); type: functional; conditions: B16-F10, 24 h, read-out: Activity
[31] = test system: B16-F10; assay: Induction of apoptosis in mouse B16F10 cells assessed as late apoptotic cells at 20 uM after 24 hrs by annexin-V-FITC/propidium iodide staining based flow cytometry (reference value: 4.47 %); type: functional
[32] = test system: B16-F10; assay: Induction of apoptosis in mouse B16F10 cells assessed as necrotic cells at 20 uM after 24 hrs by annexin-V-FITC/propidium iodide staining based flow cytometry (reference value: 1.41 %); type: functional
[33] = test system: MDA-MB-231; assay: Induction of apoptosis in human MDA-MB-231 cells assessed as viable cells at 20 uM after 24 hrs by annexin-V-FITC/propidium iodide staining based flow cytometry (reference value: 90.77 %); type: functional; conditions: MDA-MB-231, 24 h, read-out: Activity
[34] = test system: MDA-MB-231; assay: Induction of apoptosis in human MDA-MB-231 cells assessed as early apoptotic cells at 20 uM after 24 hrs by annexin-V-FITC/propidium iodide staining based flow cytometry (reference value: 0.58 %); type: functional
[35] = Induction of apoptosis in mouse RAW264.7 cells assessed as viable cells at 20 uM after 24 hrs by annexin-V-FITC/propidium iodide staining based flow cytometry (reference value: 89.11 %); type: cell-based; conditions: read-out: Activity
[36] = test system: RAW264.7; assay: Induction of apoptosis in mouse RAW264.7 cells assessed as early apoptotic cells at 20 uM after 24 hrs by annexin-V-FITC/propidium iodide staining based flow cytometry (reference value: 3.44 %); type: cell-based; conditions: raw264.7, 24 h

Which results are given for `CCCCCCCCCCCCCCCC[N+](C)(CCCCCCCCCCCCCCCC)CCNC(=O)[C@@]1(O)CC[C@H]2[C@@H]3CCC4=CC(=O)CC[C@]4(C)[C@H]3[C@@H](O)C[C@@]21C.[Cl-]`?
Activity [1]: 1.36%; Activity [2]: 2.08%; Activity [3]: 0.55%; Activity [4]: 0.51%; Activity [5]: Active; Activity [6]: Active; Activity [7]: Active; Activity [8]: 33.8%; Activity [9]: 9.6%; Activity [10]: 41.4%; Activity [11]: Non-toxic; Activity [12]: Active; Activity [13]: Active; Activity [14]: Active; Activity [15]: Active; Activity [16]: Active; Activity [17]: inactive; Ratio [18]: 0.4; Activity [19]: Active; Activity [20]: Active; Ratio [21]: 2.1; IC50 [22]: 6.2 µM; IC50 [23]: 2.5 µM; IC50 [24]: 3.7 µM; IC50 [25]: 3.5 µM; IC50 [26]: 5.2 µM; Activity [27]: >90%; viability at 20 µM [28]: 25.1%; Activity [29]: 66.05%; viability at 20 µM [30]: 57.4%; Activity [31]: 32.41%; Activity [32]: 8.52%; viability at 20 µM [33]: 50.7%; Activity [34]: 4.62%; viability at 24 h, 20 µM [35]: 94.2%; Activity [36]: 1.63%
